From BindingDB's records for doi:10.1021/jm00068a006 (Merck Research Laboratories, 1993)

Target: T1, Dimer of Gag-Pol polyprotein [489-587] (Human immunodeficiency virus 1, UniProt P12497)
T1 construct: 489-587
Test: Protease Inhibition Assay
Conditions: pH 5.5; 30 °C

SMILES: CC(C)(C)NC(=O)[C@@H]1C[C@@H]2CCCC[C@@H]2CN1C[C@@H](O)[C@H](Cc1ccccc1)NC(=O)[C@@H](NC(=O)c1ccc2ccccc2n1)[C@H]1CCOC1 [(3S,4aS,8aS)-N-tert-butyl-2-[(2R,3S)-2-hydroxy-3-[(2S)-2-[(3R)-oxolan-3-yl]-2-(quinolin-2-ylformamido)acetamido]-4-phenylbutyl]-decahydroisoquinoline-3-carboxamide]
- IC50: 54 pM
